According to patent US12533362B2, “Methods for treating diseases associated with ciliopathies” (ALEXION PHARMACEUTICALS, INC., priority 2017, dated 2026):
One block for each compound: values may come before it.

Tests used:
[1] = tested on: Nphp1−/− mice; test: retinal degeneration in Nphp1−/− mouse model; format: in vivo
Protocol: Homozygous deletion of NPHP1 is the most common cause of juvenile nephronophthisis 1. Homozygous or compound heterozygous mutations in NPHP1 are also associated with, for example, Joubert syndrome 4 (brain abnormalities) and Senior-Løken syndrome 1 (retinopathy). NPHP1 KO animals were generated to test whether taprenepag can be used to treat these diseases. To establish a CRISPR/Cas9-engineered Nphp1^−/− mouse model, single guide RNAs were injected in C57BL/6J embryos, and generated a 76 bp deletion encompassing the ATG in exon 1 of Nphp1. To characterize the natural history of Nphp1^−/− mouse model, histochemical staining of kidney and retina sections was performed from Nphp1^+/+ and Nphp1^−/− mice.
To evaluate the retinal degeneration, a semi-automated tool was developed to provide detection and quantitative thickness measurements of each retinal layers at five distant plans manually marked on the retinal section (FIG. 38B). Semi-automated quantification analysis confirms a clear decrease in thickness of photoreceptors layers ONL, IS and OS (FIG. 38C).
To assess the effect of Nphp1 deletion on the structural organization of photoreceptors in this model, immunohistochemistry (IH) analysis was performed on retina sections from Nphp1^+/+ and Nphp1^−/− mice (FIGS. 39A and B). Tissues were fixed and fluorescence-labeled with DAPI (for nuclei staining), anti-rhodopsin antibody (for OS staining), and anti-Cep290 antibody (for connecting cilia staining) or PNA (for OS and IS staining), detected using immunofluorescence microscopy.
To assess the effect of Nphp1 deletion on the functionality of photoreceptors, electroretinogram (ERG) was performed on Nphp1^+/+ and Nphp1^−/− mice, under light stimuli of different intensities (FIGS. 40A-C). FIGS. 40A and B show ERG a- and b-waves recorded from the same animals at P21, for a given light intensity. In contrast with Nphp1^+/+ mice, Nphp1^−/− mice display drastically lower ERG amplitudes at a given intensity of light stimulus. […]

[2] = tested on: NPHP patient-derived cells; test: automated cilia-based ciliogenesis assay in NPHP patient-derived cells; format: cell-based, human; details: for effect on ciliogenesis (percentage of ciliated cells) as compared with DMSO: drug screening, various tested concentrations, FIG. 5 / FIG. 6; for restoration of ciliogenesis at the highest concentration: 40 μM dinoprostone and 20 μM dmPGE2, may be due to cytotoxicity; for ciliogenesis restorative effect: FIG. 11A
Description: (§1) To identify compounds for treating diseases associated with ciliopathies such as, for example, NPHP, NPHP patient-derived cells were obtained and cell lines were established. Briefly, peeled renal epithelial cells, which are mostly proximal tubule cells (tbc) recovered from urine of NPHP1-deficient patients, were immortalized by retroviral gene transfer of SV40 T antigen. Cells were fixed and fluorescence-labeled with Hoechst (for nuclei staining), anti-γ-tubulin antibody (for basal bodies staining), and anti-ARL13B antibody (for cilia staining) for detection using immunofluorescence microscopy.
(§2) Briefly, NPHP patient-derived cells and control cells were cultured in complete media, at 39C (non-permissive temperature for SV40 expression), followed by automatic cilia analysis using immunofluorescence microscopy to measure ciliogenesis, e.g., in terms of % cilia. A spinning disk platform may be used for drug screening (FIG. 5, A-J) and ciliogenesis analysis of G3 multi-OMICs dataset (FIG. 29, A-E).
(§3) The cilia-based assay described above may be used to identify compounds that restore ciliogenesis. […] Automated random acquisition of 35 images per well may be performed, for example. Each image may have z-stack of 10 images taken at <1 μm intervals.

[3] = pharmacokinetics study in wild type mice; details: intraperitoneal; taprenepag isopropyl 1 mg/kg or 8 mg/kg, taprenepag 8 mg/kg; different time points
Protocol: After intraperitoneal injections of taprenepag isopropyl (1 mg/kg or 8 mg/kg) or taprenepag (8 mg/kg), the concentrations of these compounds in various organs were determined at different time points.

[4] = tested on: zebrafish NPHP4 MO; test: zebrafish NPHP4 morpholino (MO) model; format: in vivo
Protocol: Briefly, wild-type Tg(wt1b:GFP) transgenic zebrafish embryos were injected with morpholino (e.g., nphp4 ATG MO) at one-cell stage. At 8 hours post-fertilization (hpf), injected embryos were treated with drug or vehicle in PTU-egg water (1 mL in 12-well plates). At 24 hpf, drug treatment was renewed, and pronase was added at 36 hpf for chorion removal.

[5] = biological target: EP4 receptor (Homo sapiens, UniProt P35408); details: cited from earlier work
[6] = tested on: control cells; test: exogenous PGE2 effect on cilia in control cells; format: cell-based; details: addition of exogenous PGE2, FIG. 12
[7] = tested on: control normal epithelial cells; test: automated cilia-based ciliogenesis assay in control normal epithelial cells; format: cell-based, human; details: control normal cells, FIG. 11A
Description: as §1, §2
as §3, with “intervals. Consecutive imaging of nucleus (Hoechst at 461 nm), basal body (γ-tubulin at 555 nm) and cilia (ARL13b at 647 nm) may be obtained.” for “intervals.”

[8] = meta-analysis, multiple NPHP patient-derived cell lines

EP4 receptor, sequence (P35408 whole entry): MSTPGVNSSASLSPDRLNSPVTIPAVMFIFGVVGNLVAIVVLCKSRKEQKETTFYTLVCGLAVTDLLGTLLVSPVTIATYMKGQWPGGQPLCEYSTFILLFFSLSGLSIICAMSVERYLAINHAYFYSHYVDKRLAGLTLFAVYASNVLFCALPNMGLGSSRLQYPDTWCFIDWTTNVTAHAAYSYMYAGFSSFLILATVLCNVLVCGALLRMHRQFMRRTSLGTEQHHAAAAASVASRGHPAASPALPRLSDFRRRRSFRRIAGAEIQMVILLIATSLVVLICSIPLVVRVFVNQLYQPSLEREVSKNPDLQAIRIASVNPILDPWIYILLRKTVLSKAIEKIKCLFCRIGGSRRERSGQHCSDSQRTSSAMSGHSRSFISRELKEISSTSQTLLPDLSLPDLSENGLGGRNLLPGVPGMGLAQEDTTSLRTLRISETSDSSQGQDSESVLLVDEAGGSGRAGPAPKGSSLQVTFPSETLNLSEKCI

- EC50 ([2]; semi-log representation of ciliogenesis titration, FIG. 16C, read-out: EC50 for EP2 from CP-544326 titration): 11 nM
- stability in vivo (concentrations in plasma, kidney, testis, retina, vitreous humor) [3]: more stable than taprenepag isopropyl
SMILES: O=C(O)COc1cccc(CN(Cc2ccc(-n3cccn3)cc2)S(=O)(=O)c2cccnc2)c1 [CP-544326, taprenepag]
- ONL/OPL retina layers thicknesses ratio ([1]; 18 mg/kg i.p. every 3 or 4 days from P6 until P21, vs vehicle, p<0.05 Mann-Whitney test): significantly prevents the decrease of ONL/OPL ratio
- rhodopsin mislocalization (Mean Green intensity in ONL) ([1]; 18 mg/kg i.p., vs vehicle, p<0.05 unpaired t-test): significantly prevented rhodopsin mislocalization
- electroretinogram a-wave amplitude of photoreceptor response ([1]; 18 mg/kg i.p., vs vehicle-treated Nphp1−/− mice): slight improvement in the amplitude of photoreceptor response
- ciliogenesis, dose response compared to DMSO ([2]; FIG. 16B): restores ciliogenesis in a dose-dependent manner
- ciliogenesis as compared with DMSO ([2]; cell lines 1-09-P, 1-06-P1 and 1-06-P2 derived from NPHP1(del) patients, FIG. 17C): increases ciliogenesis in multiple cell lines
- ciliogenesis, meta-analysis ([2]; compared with alprostadil, FIG. 16A): restores ciliogenesis to a similar level as alprostadil
- linear regression pooled slope value of effect on ciliogenesis [2, 8]: 1.36
- linear regression range of slope values of effect on ciliogenesis [2, 8]: 1.245 to 1.532
- % severe, mild and normal pronephric cysts ([4]; 100 nM vs DMSO, p<0.01 Fischer's exact test): significantly reduces % severe pronephric cysts and increases % mild and normal pronephric cysts

SMILES: Cc1cccc([C@@H](C)[C@H](O)/C=C/[C@@H]2[C@@H]3[C@H](C[C@H]2O)O/C(=C\CCCc2nnn[nH]2)C3(F)F)c1 [KAG-308]
- EP4 agonist potency [5]: low nanomolar EP4-agonist

SMILES: O=C1CC[C@H](/C=C/[C@@H](O)C(F)(F)c2ccccc2)N1CCCCCCc1nnn[nH]1 [L902,688]
- effect on ciliogenesis ([2]; prostanoid EP4 agonist, FIG. 17A): does not significantly affect ciliogenesis

SMILES: COc1ccc(C2CC(c3ccccc3)=NN2c2ccc(S(N)(=O)=O)cc2)cc1 (stereo not drawn) [ML-141]
- effect on ciliogenesis (percentage of ciliated cells) as compared with DMSO [2]: did not have a significant effect on ciliogenesis

SMILES: CCCCC[C@H](O)/C=C/[C@H]1[C@H](O)CC(=O)[C@@H]1C/C=C\CCCC(=O)O [dinoprostone, prostaglandin E2]
- restoration of ciliogenesis at the highest concentration [2]: slight decrease in restoration of ciliogenesis
- ciliogenesis restorative effect [2]: ciliogenesis restorative effects similar to that of alprostadil
- cilia length and percentages of ciliated cells [6]: increased both cilia length and percentages of ciliated cells
- effect on ciliogenesis [7]: no significant effect was observed
- % severe, mild and normal pronephric cysts ([4]; 50 μM vs DMSO, p<0.008 Fischer's exact test): significantly reduced % severe and mild pronephric cysts and increased % normal pronephric cysts
- % normal body axis curvature ([4]; 50 μM vs DMSO, p=0.0066 Fischer's exact test): significantly increases % normal body axis curvature
- dorsal curvature ([4]; 50 μM vs DMSO, p=0.0577 t-test): did not significantly affect dorsal curvature

SMILES: CCCCC(C)(C)[C@H](O)/C=C/[C@H]1[C@H](O)CC(=O)[C@@H]1C/C=C\CCCC(=O)O [dmPGE2, 16,16-dimethyl-PGE2]
- restoration of ciliogenesis at the highest concentration [2]: slight decrease in restoration of ciliogenesis
- ciliogenesis restorative effect [2]: ciliogenesis restorative effects similar to that of alprostadil
- effect on ciliogenesis [7]: no significant effect was observed

SMILES: CCN(CC)C(C)CN1c2ccccc2Sc2ccccc21 (stereo not drawn) [ethopropazine]
- effect on ciliogenesis (percentage of ciliated cells) as compared with DMSO [2]: did not have a significant effect on ciliogenesis

SMILES: O=C1c2c(O)ccc(O)c2C(=O)c2c(NCCNCCO)ccc(NCCNCCO)c21 [mitoxantrone]
- effect on ciliogenesis (percentage of ciliated cells) as compared with DMSO [2]: did not have a significant effect on ciliogenesis

SMILES: CC(=O)O[C@H]1C(=O)[C@@]2(C)[C@H]([C@H](OC(=O)c3ccccc3)[C@]3(O)C[C@H](OC(=O)[C@H](O)[C@@H](NC(=O)c4ccccc4)c4ccccc4)C(C)=C1C3(C)C)[C@]1(OC(C)=O)CO[C@@H]1C[C@@H]2O [paclitaxel]
- effect on ciliogenesis (percentage of ciliated cells) as compared with DMSO [2]: did not have a significant effect on ciliogenesis

SMILES: CN(C)CCC(c1ccccc1)c1ccccn1 (stereo not drawn) [pheniramine]
- effect on ciliogenesis (percentage of ciliated cells) as compared with DMSO [2]: did not have a significant effect on ciliogenesis

SMILES: CN1[C@@H]2CC[C@H]1C[C@@H](OC(=O)c1c[nH]c3ccccc13)C2 [tropisetron]
- effect on ciliogenesis (percentage of ciliated cells) as compared with DMSO [2]: did not have a significant effect on ciliogenesis

SMILES: COc1ccc(CCN(C)CCCC(C#N)(c2ccc(OC)c(OC)c2)C(C)C)cc1OC (stereo not drawn) [verapamil]
- effect on ciliogenesis (percentage of ciliated cells) as compared with DMSO [2]: did not have a significant effect on ciliogenesis
